The numbers were not newly measured in paper PMC3241508 (Bioconjugate chemistry, 2011), which cites them from elsewhere.

In the case of dextran sulfate, where the note is “later study”, the “oral absorption into the blood stream” value is listed as “good oral absorption”. Further, the oral absorption entry (oral) is “poorly absorbed orally”.
